These results are taken from paper PMC10913730, “Antimicrobial activity of a natural compound and analogs against multi-drug-resistant Gram-positive pathogens” (Microbiology Spectrum, 2024).

The nature of data set [1]: pH and Ka of 10-g/L aqueous solutions (pH meter). The data set is classed as physicochemical. Conditions: 10-g/L solution in distilled, deionized water, room temperature.
The next data set deals with MRSA isolates. Nature of the data set: MIC/MBC, CLSI broth microdilution, MRSA isolates. It counts as cell-based, Staphylococcus aureus. Conditions: Staphylococcus aureus.
Another data set concerns MRSA isolate TCH 1516. The data set is described as follows: Resistance acquisition during serial passage. It counts as cell-based, Staphylococcus aureus. The following applies: for increase in MIC: serial passage. The procedure: MRSA isolate TCH 1516 was grown to the stationary phase (OD650 = 1.0) in 10 mL of MH broth. […] The second highest drug concentration resulting in bacterial growth (OD650 >1.0) was used as the inoculum after a 1:1,000 dilution for subsequent steps, every 24 hours, for up to 21 days.

Setting [2] is: MRSA, 39 evaluated MRSA isolates, CLSI broth microdilution.
[3] abbreviates: MRSA, pH 7.4, MRSA 0606, pH 7.4.
Setting [4] is: MRSA, pH 7.4, MRSA 0608, pH 7.4.
[5] abbreviates: MRSA, pH 7.4, MRSA 0634, pH 7.4.
Where [6] appears, read: MRSA, pH 7.4, MRSA 0641, pH 7.4.
[7] abbreviates: MRSA, pH 7.4, MRSA 0646, pH 7.4.
[8] abbreviates: MRSA, read-out: MBC90, 39 evaluated MRSA isolates, CLSI broth microdilution.
The mark [9] stands for this setting: MRSA, pH 5.5, MRSA 0606, pH 5.5.
Setting [10] is: MRSA, pH 5.5, MRSA 0608, pH 5.5.
Setting [11] is: MRSA, pH 5.5, MRSA 0634, pH 5.5.
[12] abbreviates: MRSA, pH 5.5, MRSA 0641, pH 5.5.
Where [13] appears, read: MRSA, pH 5.5, MRSA 0646, pH 5.5.
Setting [14] is: MRSA, pH 6.5, MRSA 0606, pH 6.5.
Where [15] appears, read: MRSA, pH 6.5, MRSA 0608, pH 6.5.
Setting [16] is: MRSA, pH 6.5, MRSA 0634, pH 6.5.
Where [17] appears, read: MRSA, pH 6.5, MRSA 0641, pH 6.5.
Setting [18] is: MRSA, pH 6.5, MRSA 0646, pH 6.5.
Where [19] appears, read: 39 evaluated MRSA isolates, CLSI broth microdilution, read-out: MBC90.
Where [20] appears, read: 39 evaluated MRSA isolates, CLSI broth microdilution, read-out: MIC90.

In brackets after ≈: the same amount, converted by molar mass. Read-outs that look alike come from different tables or passages of the source.

As to `[K+].[K+].[O-]c1c(Cl)cc(Cl)cc1-c1cc(Cl)cc(Cl)c1[O-]` [C59K], in data set [1], the pH of solution entry is given as “greater than 10”. Besides, in the data set with MRSA isolates (setting [2]), the MIC90 is 2 µg/mL. Besides, the MBC against MRSA isolates (setting [3]) was 6 µg/mL; against MRSA isolates (setting [4]), 4 µg/mL; against MRSA isolates (setting [5]) it was 6 µg/mL; in the data set with MRSA isolates (setting [6]) it was 4 µg/mL; against MRSA isolates (setting [7]), 4 µg/mL; in the data set on MRSA isolates (MRSA, pH 7.4, TCH 1516, pH 7.4) it was 4 µg/mL. Moreover, in the data set on MRSA isolates (setting [8]), the MBC stood at 4 µg/mL. For the same molecule, the minimum inhibitory concentration (MIC) amounted to 2 µg/mL against MRSA isolates (setting [3]); 4 µg/mL in the data set with MRSA isolates (setting [4]); 2 µg/mL against MRSA isolates (setting [5]); 2 µg/mL against MRSA isolates (setting [6]); 2 µg/mL against MRSA isolates (setting [7]); 2 µg/mL in the data set on MRSA isolates (MRSA, pH 7.4, TCH 1516, pH 7.4).
Regarding `[Li+].[Li+].[O-]c1c(Cl)cc(Cl)cc1-c1cc(Cl)cc(Cl)c1[O-]` [C59Li], in data set [1], the pH of solution result is listed as “greater than 10”. Besides, the MIC90 in the data set on MRSA isolates (setting [2]) turned out to be 4 µg/mL. For the same molecule, the MBC against MRSA isolates (setting [9]) turned out to be 0.25 µg/mL; in the data set on MRSA isolates (setting [10]), 0.25 µg/mL; with MRSA isolates (setting [11]) it was 0.25 µg/mL; in the data set with MRSA isolates (setting [12]), 0.25 µg/mL; in the data set with MRSA isolates (setting [13]) it was 0.25 µg/mL; in the data set with MRSA isolates (MRSA, pH 5.5, TCH 1516, pH 5.5), 0.25 µg/mL. The MBC is 0.25 µg/mL with MRSA isolates (MRSA, pH 5.5, read-out: Average MBC, average of six MRSA isolates, pH 5.5); 1 µg/mL with MRSA isolates (setting [14]); 2 µg/mL against MRSA isolates (setting [15]); 1 µg/mL in the data set with MRSA isolates (setting [16]); 6 µg/mL with MRSA isolates (setting [17]); 1 µg/mL in the data set on MRSA isolates (setting [18]). The MBC against MRSA isolates (MRSA, pH 6.5, TCH 1516, pH 6.5) was 1 µg/mL; in the data set with MRSA isolates (MRSA, pH 6.5, read-out: Average MBC, average of six MRSA isolates, pH 6.5), 2 µg/mL; in the data set with MRSA isolates (setting [3]), 2 µg/mL; against MRSA isolates (setting [4]), 6 µg/mL; in the data set on MRSA isolates (setting [5]) it was 2 µg/mL; with MRSA isolates (setting [6]), 4 µg/mL. The MBC was 4 µg/mL in the data set on MRSA isolates (setting [7]); 2 µg/mL against MRSA isolates (MRSA, pH 7.4, TCH 1516, pH 7.4); 3.3 µg/mL in the data set with MRSA isolates (MRSA, pH 7.4, read-out: Average MBC, average of six MRSA isolates, pH 7.4); 4 µg/mL in the data set on MRSA isolates (setting [8]). Also, the MIC against MRSA isolates (setting [9]) is 0.25 µg/mL; against MRSA isolates (setting [10]), 0.25 µg/mL; with MRSA isolates (setting [11]), 0.25 µg/mL; in the data set on MRSA isolates (setting [12]), 0.25 µg/mL; in the data set with MRSA isolates (setting [13]), 0.25 µg/mL; against MRSA isolates (MRSA, pH 5.5, TCH 1516, pH 5.5), 0.25 µg/mL. Moreover, the MIC in the data set on MRSA isolates (MRSA, pH 5.5, read-out: Average MIC, average of six MRSA isolates, pH 5.5) came out at 0.25 µg/mL; in the data set on MRSA isolates (setting [14]), 1 µg/mL; with MRSA isolates (setting [15]), 1 µg/mL; against MRSA isolates (setting [16]), 1 µg/mL; in the data set on MRSA isolates (setting [17]) it was 0.5 µg/mL; in the data set with MRSA isolates (setting [18]) it was 0.5 µg/mL. Moreover, the minimum inhibitory concentration (MIC) is 1 µg/mL in the data set with MRSA isolates (MRSA, pH 6.5, TCH 1516, pH 6.5); 0.83 µg/mL in the data set on MRSA isolates (MRSA, pH 6.5, read-out: Average MIC, average of six MRSA isolates, pH 6.5); 1 µg/mL in the data set with MRSA isolates (setting [3]); 2 µg/mL in the data set with MRSA isolates (setting [4]); 2 µg/mL with MRSA isolates (setting [5]); 2 µg/mL in the data set with MRSA isolates (setting [6]). Also, the minimal inhibitory concentration (MIC) with MRSA isolates (setting [7]) came out at 1 µg/mL; against MRSA isolates (MRSA, pH 7.4, TCH 1516, pH 7.4), 2 µg/mL; in the data set on MRSA isolates (MRSA, pH 7.4, read-out: Average MIC, average of six MRSA isolates, pH 7.4), 1.7 µg/mL.
Regarding `CCC[C@@H]1C[C@@H](C(=O)N[C@@H]([C@H]2O[C@H](SC)[C@H](O)[C@@H](O)[C@H]2O)[C@H](C)Cl)N(C)C1` [Clindamycin, clindamycin, reference compound], in the data set on MRSA isolates (setting [19]), the MBC was greater than 32 µg/mL. For the same molecule, the MIC90 in the data set on MRSA isolates (setting [20]) was greater than 32 µg/mL. Further, in the data set on MRSA isolate TCH 1516 (Staphylococcus aureus, MRSA, 408 h, read-out: MIC after serial passage), the MIC turned out to be 32 µg/mL (≈ 75.3 µM). Besides, the “increase in MIC” value in the data set with MRSA isolate TCH 1516 (after 17 days) was 256 fold.
For `CCCCCCCCCC(=O)N[C@@H](Cc1c[nH]c2ccccc12)C(=O)N[C@H](CC(N)=O)C(=O)N[C@@H](CC(=O)O)C(=O)N[C@@H]1C(=O)NCC(=O)N[C@@H](CCCN)C(=O)N[C@@H](CC(=O)O)C(=O)N[C@H](C)C(=O)N[C@@H](CC(=O)O)C(=O)NCC(=O)N[C@H](CO)C(=O)N[C@@H]([C@H](C)CC(=O)O)C(=O)N[C@@H](CC(=O)c2ccccc2N)C(=O)O[C@@H]1C` [Daptomycin, daptomycin, reference compound], in the data set on MRSA isolates (setting [19]), the MBC was 2 µg/mL (≈ 1.23 µM). Also, the MIC90 in the data set with MRSA isolates (setting [20]) came out at 2 µg/mL (≈ 1.23 µM).
With `CC(=O)NC[C@H]1CN(c2ccc(N3CCOCC3)c(F)c2)C(=O)O1` [Linezolid, linezolid, reference compound], the MBC with MRSA isolates (setting [19]) was greater than 32 µg/mL. Further, in the data set with MRSA isolates (setting [20]), the MIC90 came out at 4 µg/mL (≈ 11.9 µM). Further, the “increase in MIC” value in the data set on MRSA isolate TCH 1516 (after 21 days) is listed as 16 fold.

As a reminder, the MIC90 is the lowest concentration that inhibits either 90% of growth or 90% of the strains tested, depending on the study. As usually defined, the MIC is the lowest concentration found to suppress growth.
